Data published in paper PMC3486420, “In Vitro and In Vivo Characterizations of Chiglitazar, a Newly Identified PPAR Pan-Agonist” (PPAR Research, 2012).

Tested on: RAW267.4 cells
Experiment: Gene expression by RT-PCR in RAW267.4 cells
Format: cell-based, mouse
Settings: 48 h, 10 μM chiglitazar
Source text: cDNAs for human retinoid X receptor (hRXR), PPARα, PPARγ, and PPARδ were obtained by reverse transcriptase polymerase chain reaction (RT-PCR) from human liver or adipose tissues. Amplified cDNAs were cloned into pcDNA3.1 expression vector (Invitrogen, Carlsbad, CA, USA). The integrity and fidelity of all constructs made were verified by DNA sequencing. Luciferase reporter plasmids, ACOX promoter for PPARγ and pHD(X3)-luc for PPARα, were kind gifts of Drs. TM McIntyre (University of Utah, USA) and RA Rachubinski (University of Alberta, Canada), respectively. PPRE-luc for PPARδ was constructed based on the previous report by insertion of the annealed oligonucleotides having four copies of the CYP4A6 PPRE (4 × […]) into the upstream of the luciferase coding sequence in pGL3-promoter vector (Promega, Madison, WI, USA). pCMVβGal was purchased from Clontech (Palo Alto, CA, USA). The mouse 3T3-L1 preadipocyte cell line, skeletal muscle C2C12 cell line, and macrophage RAW267.4 cell line and the human osteosarcoma U2OS cell line were obtained from the American Type Culture Collection (ATCC, Rockville, MD, USA). The human hepatoma SMMC-7721 cell line was obtained from the Cell Culture Center of Chinese Academy of Medical Sciences (Beijing, China). Cell lines were cultured in medium of DMEM (3T3-L1, C2C12, and SMMC-7721), RPMI 1640 (RAW267.4), or McCoy's 5A (U2OS), containing 10% fetal bovine serum (FBS), 50 μg/mL streptomycin, and 50 units/mL penicillin at 37°C in a humidified incubator with 5% CO2.
Total RNA was extracted from cells or tissues with an RNeasy minikit (Qiagen, Valencia, CA, USA). The first-strand cDNA was synthesized using the oligo(dT) primers, followed by using SuperScript II reverse transcriptase (Invitrogen) according to the manufacturer's instructions. The PCR amplifications were performed in 10 μL of reaction mixture volume containing 0.8 μL of cDNA, 10 mM Tris-HCl (pH 8.3), 50 mM KCl, 1.5 mM MgCl2, 0.1% Triton X-100, 0.2 mM deoxynucleotide triphosphates, 0.4 μM primers, and 0.25 U of Taq polymerase (TaKaRa Biotechnology Co., Ltd, China). Taq DNA polymerase was added to each tube after a treatment of 2 min at 94°C. This was followed by 22–30 cycles of denaturation (23 s at 94°C), annealing (20 s at 55°C), extension (30 s at 72°C), and a final extension step of 2 min. PCR products were analyzed by electrophoresis on a 1.5% agarose gel stained with ethidium bromide.
Figure 1 In vitro regulation of gene expression by chiglitazar. (a) Endogenous expression of individual PPAR subtypes in cell lines. […]. The expression change of referred genes induced by different compounds was normalized against internal control (36B4 or GAPDH) and then compared with vehicle control treatment. The data shown are averaged from 3 independent experiments.

Question: How did the “Expression of PPARα and/or PPARδ downstream gene SRA” value (50 μM WY14643, 5 μM 2-Bro, compared with rosiglitazone 10 μM) turn out when `O=C(c1ccc(F)cc1)c1ccccc1NC(Cc1ccc(OCCn2c3ccccc3c3ccccc32)cc1)C(=O)O` (centres unmarked) [Chi, 2-[(2-(4-fluorobenzoyl)phenyl)amino]-3-[4-(2-carbazolylethoxy)-phenyl]-propionic acid] was run?
Answer: more significantly upregulated

Question: And the “Expression of PPARγ downstream gene CD36” value (10 μM rosiglitazone, vs vehicle)?
Answer: upregulated
